A short description of one data set: RP, Phenomenex Synergi Hydro-RP, 250 × 2 mm, 4 µm, 25 °C, 0.2 mL/min, estimated dead time 2.5 min; A: water + 0.1% formic acid, pH 3; B: acetonitrile + 0.1% formic acid, pH 3; gradient (min/%B) 0/0.5 7/0.5 12/12.5 25/16.3 47/35 48/65 50/65 50.1/0.5. Particulars: stereoisomer not certain.
As to `O=C(O)CCc1ccc(O)c(O)c1` [Dihydrocaffeic acid], the LC retention time was 20.1 min.

On to `O=C(O)CCc1ccc(O)cc1` [Phloretic acid], for which the LC retention time is 26 min.

Regarding `O=C(O)Cc1ccc(O)cc1` [4-Hydroxyphenylacetic acid], the LC retention time is 20.4 min.

The nature of the next data set: RP, Waters ACQUITY UPLC BEH Shield RP18, 150 × 2.1 mm, 1.7 µm, 40 °C, 0.4 mL/min, estimated dead time 0.83 min; A: water + 0.1% formic acid, pH 3; B: acetonitrile + 0.1% formic acid, pH 3; gradient (min/%B) 0/0 30/50 31/100 37/100 37.1/0. Particulars: stereoisomer not certain.
Take `O=C(O)CCc1ccc(O)c(O)c1` [Dihydrocaffeic acid]: the LC retention time is 5.6 min.

On to `O=C(O)C1OC(Oc2c(-c3ccc(O)cc3)oc3cc(O)cc(O)c3c2=O)C(O)C(O)C1O` (centres undefined) [Kaempferol-3-O-glucuronide], for which the LC retention time is 15.2 min.

For `O=C(O)CCc1ccc(O)cc1` [Phloretic acid], the LC retention time was 6.46 min.

In the case of `O=c1ccc2c(O)c3ccoc3cc2o1` [Bergaptol], the LC retention time is 17.9 min.

Take `O=C(O)Cc1ccc(O)cc1` [4-Hydroxyphenylacetic acid]: the LC retention time is 5.41 min.

The next data set can be described thus: RP, 50 × 0.5 mm, 2.7 µm, 35 °C, 0.01 mL/min, estimated dead time 0.62 min; A: water + 0.1% formic acid, pH 3; B: acetonitrile + 0.1% formic acid, pH 3; gradient (min/%B) 0/5 12/95 14/95 16/5. Particulars: stereoisomer not certain.
Regarding `O=C(O)CCc1ccc(O)c(O)c1` [Dihydrocaffeic acid], the LC retention time is 2.6 min.

On to `O=C(O)C1OC(Oc2c(-c3ccc(O)cc3)oc3cc(O)cc(O)c3c2=O)C(O)C(O)C1O` (centres undefined) [Kaempferol-3-O-glucuronide], for which the LC retention time is 4.81 min.

As for `O=C(O)CCc1ccc(O)cc1` [Phloretic acid], the LC retention time is 3.41 min.

As for `O=c1ccc2c(O)c3ccoc3cc2o1` [Bergaptol], the LC retention time was 5.42 min.

With `O=C(O)Cc1ccc(O)cc1` [4-Hydroxyphenylacetic acid], the LC retention time was 2.53 min.

A further data set can be described thus: RP, 100 × 0.5 mm, 2.7 µm, 45 °C, 0.015 mL/min, estimated dead time 0.83 min; A: water + 0.9% formic acid; B: acetonitrile + 0.9% formic acid; gradient (min/%B) 0/1 0.5/1 4/95 4.5/1 5/1. Particulars: stereoisomer not certain.
On to `O=C(O)CCc1ccc(O)c(O)c1` [Dihydrocaffeic acid], for which the LC retention time was 2.4 min.

With `O=C(O)C1OC(Oc2c(-c3ccc(O)cc3)oc3cc(O)cc(O)c3c2=O)C(O)C(O)C1O` (centres undefined) [Kaempferol-3-O-glucuronide], the LC retention time is 2.39 min.

On to `O=C(O)CCc1ccc(O)cc1` [Phloretic acid], for which the LC retention time was 2.32 min.

For `O=c1ccc2c(O)c3ccoc3cc2o1` [Bergaptol], the LC retention time is 3.08 min.

As for `O=C(O)Cc1ccc(O)cc1` [4-Hydroxyphenylacetic acid], the LC retention time is 2.71 min.

The next data set can be described thus: RP, Phenomenex Synergi Hydro-RP, 150 × 2 mm, 4 µm, 30 °C, 0.5 mL/min, estimated dead time 0.6 min; A: water + 0.1% formic acid, pH 3; B: acetonitrile + 0.1% formic acid, pH 3; gradient (min/%B) 0/5 1/5 35/45 40/100 45/100. Particulars: stereoisomer not certain.
As to `O=C(O)CCc1ccc(O)c(O)c1` [Dihydrocaffeic acid], the LC retention time was 14.6 min.

Consider `O=C(O)C1OC(Oc2c(-c3ccc(O)cc3)oc3cc(O)cc(O)c3c2=O)C(O)C(O)C1O` (centres undefined) [Kaempferol-3-O-glucuronide], for which the LC retention time is 17.4 min.

As for `O=C(O)CCc1ccc(O)cc1` [Phloretic acid], the LC retention time is 11.7 min.

For the compound `O=c1ccc2c(O)c3ccoc3cc2o1` [Bergaptol], the LC retention time was 21.6 min.

With `O=C(O)Cc1ccc(O)cc1` [4-Hydroxyphenylacetic acid], the LC retention time is 11.9 min.

The nature of another data set: RP, Waters ACQUITY UPLC BEH C18, 100 × 2.1 mm, 1.7 µm, 65 °C, 0.4 mL/min, estimated dead time 0.55 min; A: water + 0.1% formic acid, pH 3; B: 80% acetonitrile + 20% acetone + 0.1% formic acid, pH 3; gradient (min/%B) 0/0 5/100 5.5/0 6/0. Conditions: stereoisomer not certain.
As to `O=C(O)CCc1ccc(O)c(O)c1` [Dihydrocaffeic acid], the LC retention time is 1.69 min.

Turning to `O=C(O)CCc1ccc(O)cc1` [Phloretic acid], the LC retention time was 2.09 min.

Regarding `O=C(O)Cc1ccc(O)cc1` [4-Hydroxyphenylacetic acid], the LC retention time was 1.76 min.

Another data set in a line: RP, Waters ACQUITY UPLC BEH Shield RP18, 100 × 2.1 mm, 1.7 µm, 30 °C, 0.6 mL/min, estimated dead time 0.37 min; A: water + 0.1% formic acid, pH 3; B: acetonitrile + 0.1% formic acid, pH 3; gradient (min/%B) 0/0 2/0 7/10 22/95 22.1/0 26/0. Particulars: stereoisomer not certain.
Turning to `O=C(O)CCc1ccc(O)c(O)c1` [Dihydrocaffeic acid], the LC retention time is 8.08 min.

Regarding `O=C(O)C1OC(Oc2c(-c3ccc(O)cc3)oc3cc(O)cc(O)c3c2=O)C(O)C(O)C1O` (centres undefined) [Kaempferol-3-O-glucuronide], the LC retention time is 13.7 min.

For `O=C(O)CCc1ccc(O)cc1` [Phloretic acid], the LC retention time was 10.4 min.

`O=c1ccc2c(O)c3ccoc3cc2o1` [Bergaptol]: the LC retention time was 14.7 min.

Take `O=C(O)Cc1ccc(O)cc1` [4-Hydroxyphenylacetic acid]: the LC retention time was 7.43 min.

Another data set can be described thus: RP, Phenomenex Luna C18, 150 × 4.6 mm, 3 µm, 25 °C, 0.5 mL/min, estimated dead time 3.2 min; A: water + 0.1% formic acid, pH 3; B: acetonitrile + 0.1% formic acid, pH 3; gradient (min/%B) 0/0 30/30 35/40 50/80 52/80 60/0 65/0. Conditions: stereoisomer not certain.
Take `O=C(O)CCc1ccc(O)c(O)c1` [Dihydrocaffeic acid]: the LC retention time was 14.2 min.

Turning to `O=C(O)C1OC(Oc2c(-c3ccc(O)cc3)oc3cc(O)cc(O)c3c2=O)C(O)C(O)C1O` (centres undefined) [Kaempferol-3-O-glucuronide], the LC retention time was 27.4 min.

In the case of `O=C(O)CCc1ccc(O)cc1` [Phloretic acid], the LC retention time is 19.9 min.

For the compound `O=c1ccc2c(O)c3ccoc3cc2o1` [Bergaptol], the LC retention time was 37.6 min.

Regarding `O=C(O)Cc1ccc(O)cc1` [4-Hydroxyphenylacetic acid], the LC retention time is 14.7 min.

A short description of another data set: RP, Phenomenex Luna Omega Polar C18, 100 × 2.1 mm, 1.6 µm, 40 °C, 0.5 mL/min, estimated dead time 0.44 min; A: water + 0.5% formic acid; B: acetonitrile + 0.5% formic acid; gradient (min/%B) 0/5 3/50 3.1/100 5/100 5.1/5 7/5. Conditions: stereoisomer not certain.
For the compound `O=C(O)CCc1ccc(O)c(O)c1` [Dihydrocaffeic acid], the LC retention time is 2.6 min.

Regarding `O=C(O)C1OC(Oc2c(-c3ccc(O)cc3)oc3cc(O)cc(O)c3c2=O)C(O)C(O)C1O` (centres undefined) [Kaempferol-3-O-glucuronide], the LC retention time was 2.53 min.

As for `O=C(O)CCc1ccc(O)cc1` [Phloretic acid], the LC retention time is 2.19 min.

For the compound `O=c1ccc2c(O)c3ccoc3cc2o1` [Bergaptol], the LC retention time was 3.25 min.

With `O=C(O)Cc1ccc(O)cc1` [4-Hydroxyphenylacetic acid], the LC retention time was 1.15 min.

The next data set can be described thus: RP, Phenomenex Luna Omega Polar C18, 100 × 2.1 mm, 1.6 µm, 40 °C, 0.5 mL/min, estimated dead time 0.44 min; A: water + 0.1% formic acid + 10 mM ammonium formate; B: acetonitrile; gradient (min/%B) 0/5 8/20 10/100 12/100 12.1/5 14/5. Particulars: stereoisomer not certain.
As for `O=C(O)CCc1ccc(O)c(O)c1` [Dihydrocaffeic acid], the LC retention time was 3.46 min.

For `O=C(O)C1OC(Oc2c(-c3ccc(O)cc3)oc3cc(O)cc(O)c3c2=O)C(O)C(O)C1O` (centres undefined) [Kaempferol-3-O-glucuronide], the LC retention time was 8.58 min.

For `O=C(O)CCc1ccc(O)cc1` [Phloretic acid], the LC retention time was 5.01 min.

For the compound `O=c1ccc2c(O)c3ccoc3cc2o1` [Bergaptol], the LC retention time was 9.43 min.

Regarding `O=C(O)Cc1ccc(O)cc1` [4-Hydroxyphenylacetic acid], the LC retention time is 3.36 min.

The nature of a further data set: RP, Agilent ZORBAX Eclipse XDB-C18, 100 × 2.1 mm, 1.8 µm, 50 °C, 0.4 mL/min, estimated dead time 0.55 min; A: water + 0.1% formic acid, pH 3; B: methanol + 0.1% formic acid, pH 3; gradient (min/%B) 0/2 10/100 14.5/100 14.51/2 16.5/2. Conditions: stereoisomer not certain.
With `O=C(O)CCc1ccc(O)c(O)c1` [Dihydrocaffeic acid], the LC retention time was 3.33 min.

For the compound `O=C(O)C1OC(Oc2c(-c3ccc(O)cc3)oc3cc(O)cc(O)c3c2=O)C(O)C(O)C1O` (centres undefined) [Kaempferol-3-O-glucuronide], the LC retention time was 5.52 min.

For `O=C(O)CCc1ccc(O)cc1` [Phloretic acid], the LC retention time is 4.09 min.

For `O=c1ccc2c(O)c3ccoc3cc2o1` [Bergaptol], the LC retention time was 6.04 min.

With `O=C(O)Cc1ccc(O)cc1` [4-Hydroxyphenylacetic acid], the LC retention time was 3.26 min.

A further data set is described as follows: RP, Agilent ZORBAX RRHD Eclipse Plus C18, 50 × 2.1 mm, 1.8 µm, 30 °C, 0.4 mL/min, estimated dead time 0.28 min; A: water + 0.1% formic acid, pH 3; B: acetonitrile + 0.1% formic acid, pH 3; gradient (min/%B) 0/1 5/10 8/25 9.1/99 10/99 12/1. Conditions: stereoisomer not certain.
In the case of `O=C(O)CCc1ccc(O)c(O)c1` [Dihydrocaffeic acid], the LC retention time is 5.05 min.

As to `O=C(O)C1OC(Oc2c(-c3ccc(O)cc3)oc3cc(O)cc(O)c3c2=O)C(O)C(O)C1O` (centres undefined) [Kaempferol-3-O-glucuronide], the LC retention time is 8.37 min.

Regarding `O=C(O)CCc1ccc(O)cc1` [Phloretic acid], the LC retention time is 6.75 min.

A further data set is described as follows: RP, 150 × 2.1 mm, 2.6 µm, 40 °C, 0.35 mL/min, estimated dead time 0.94 min; A: water + 0.1% formic acid, pH 3; B: acetonitrile + 0.1% formic acid, pH 3; gradient (min/%B) 0/0 1/5 7/45 8.5/80 10.5/80 11/5 12/5. Particulars: stereoisomer not certain.
For `O=C(O)Cc1ccc(O)cc1` [4-Hydroxyphenylacetic acid], the LC retention time is 4.34 min.

The nature of a further data set: RP, 150 × 2.1 mm, 2.6 µm, 40 °C, 0.35 mL/min, estimated dead time 0.94 min; A: water + 0.1% formic acid, pH 3; B: acetonitrile + 0.1% formic acid, pH 3; gradient (min/%B) 0/0 1/0 12.5/100 14/100 14.2/0 15/0. Particulars: stereoisomer not certain.
With `O=C(O)Cc1ccc(O)cc1` [4-Hydroxyphenylacetic acid], the LC retention time was 4.61 min.

Another data set is described as follows: RP, Waters ACQUITY UPLC HSS T3, 100 × 2.1 mm, 1.8 µm, 30 °C, 0.4 mL/min, estimated dead time 0.55 min; A: water + 0.1% formic acid, pH 3; B: acetonitrile + 0.1% formic acid, pH 3; gradient (min/%B) 0/0 2/0 15/100 22/100 22.1/0 26/0. Particulars: stereoisomer not certain.
For `O=C(O)CCc1ccc(O)c(O)c1` [Dihydrocaffeic acid], the LC retention time is 8.3 min.

In the case of `O=C(O)C1OC(Oc2c(-c3ccc(O)cc3)oc3cc(O)cc(O)c3c2=O)C(O)C(O)C1O` (centres undefined) [Kaempferol-3-O-glucuronide], the LC retention time was 9.51 min.

Consider `O=C(O)CCc1ccc(O)cc1` [Phloretic acid], for which the LC retention time is 9.17 min.

In the case of `O=c1ccc2c(O)c3ccoc3cc2o1` [Bergaptol], the LC retention time was 11 min.

For `O=C(O)Cc1ccc(O)cc1` [4-Hydroxyphenylacetic acid], the LC retention time is 8.37 min.

A further data set can be described thus: RP, Agilent ZORBAX RRHD Eclipse Plus C18, 50 × 2.1 mm, 1.8 µm, 30 °C, 0.4 mL/min, estimated dead time 0.28 min; A: water + 0.1% formic acid, pH 3; B: acetonitrile + 0.1% formic acid, pH 3; gradient (min/%B) 0/1 5/10 8/25 9.1/99 10/99 12/99. Particulars: stereoisomer not certain.
`O=C(O)CCc1ccc(O)c(O)c1` [Dihydrocaffeic acid]: the LC retention time was 2.11 min.

As for `O=C(O)C1OC(Oc2c(-c3ccc(O)cc3)oc3cc(O)cc(O)c3c2=O)C(O)C(O)C1O` (centres undefined) [Kaempferol-3-O-glucuronide], the LC retention time was 8.79 min.

As to `O=C(O)CCc1ccc(O)cc1` [Phloretic acid], the LC retention time is 6.26 min.

Another data set in a line: RP, Agilent InfinityLab Poroshell 120 EC-C18, 100 × 3 mm, 2.7 µm, 25 °C, 0.4 mL/min, estimated dead time 1.1 min; A: water + 0.1% formic acid, pH 3; B: acetonitrile + 0.1% formic acid, pH 3; gradient (min/%B) 0/5 10/25 20/40 24/90 25/90 26/5 30/5. Conditions: stereoisomer not certain.
As for `O=C(O)CCc1ccc(O)c(O)c1` [Dihydrocaffeic acid], the LC retention time was 6.04 min.

On to `O=C(O)C1OC(Oc2c(-c3ccc(O)cc3)oc3cc(O)cc(O)c3c2=O)C(O)C(O)C1O` (centres undefined) [Kaempferol-3-O-glucuronide], for which the LC retention time is 10.5 min.

In the case of `O=C(O)CCc1ccc(O)cc1` [Phloretic acid], the LC retention time was 7.93 min.

Turning to `O=c1ccc2c(O)c3ccoc3cc2o1` [Bergaptol], the LC retention time was 13.9 min.

On to `O=C(O)Cc1ccc(O)cc1` [4-Hydroxyphenylacetic acid], for which the LC retention time is 6.13 min.
